According to ChEMBL document CHEMBL1121661, “Synthesis and antitumor activity of a series of sulfone analogues of 1,4-naphthoquinone” (1981):

Key:
Assay type in all cases: functional
Mus musculus [1] = experiment: Percent inhibition of Ehrlich ascites carcinoma growth at 10 mg/kg per day
Mus musculus [2] = experiment: Percent packed cell volume at 10 mg/kg per day
Mus musculus [3] = experiment: Percent packed cell volume at 10 mg/kg per day per mouse; set-up: unit not given here
Mus musculus [4] = experiment: Effect on Ehrlich ascites carcinoma growth in CF1 mice at 10 mg/kg per day ip survival at day 9; 6/6; conditions: route intraperitoneal
Mus musculus [5] = experiment: Effect on P-388 lymphocytic leukemia growth at a given dose 10 mg/kg per day ip expressed as average survival days of treated mice; conditions: route intraperitoneal
Mus musculus [6] = experiment: Effect on P-388 lymphocytic leukemia growth at a given dose 10 mg/kg per day ip expressed as ratio of treated / control (T/C>125 is required for significant activity); conditions: route intraperitoneal
Mus musculus [7] = experiment: Effect on Ehrlich ascites carcinoma growth in CF1 mice at 10 mg/kg per day ip survival at day 9; 8/8; conditions: route intraperitoneal
Mus musculus [8] = experiment: Effect of compound on P-388 lymphocytic leukemia growth at a given dose 15 mg/kg per day ip expressed as average survival days of treated mice; conditions: route intraperitoneal
Mus musculus [9] = experiment: Effect of compound on P-388 lymphocytic leukemia growth at a given dose 15 mg/kg per day ip expressed as ratio of treated / control (T/C>125 is required for significant activity); conditions: route intraperitoneal
Mus musculus [10] = experiment: Effect of compound on P-388 lymphocytic leukemia growth at a given dose 5 mg/kg per day ip expressed as average survival days of treated mice; conditions: route intraperitoneal
Mus musculus [11] = experiment: Effect of compound on P-388 lymphocytic leukemia growth at a given dose 10 mg/kg per day ip expressed as ratio of treated / control (T/C>125 is required for significant activity); conditions: route intraperitoneal
Mus musculus [12] = experiment: Effect of compound on P-388 lymphocytic leukemia growth at a given dose 5 mg/kg per day ip expressed as ratio of treated / control (T/C>125 is required for significant activity); conditions: route intraperitoneal
Mus musculus [13] = experiment: Effect of compound on Ehrlich ascites carcinoma growth in CF1 mice at a dose ((20 mg/kg)/day) ip survival at day 9 packed cell volume as a percent
Mus musculus [14] = experiment: Effect of compound on Ehrlich ascites carcinoma growth in CF1 mice at a dose ((20 mg/kg)/day) ip survival at day 9 packed cell volume
Mus musculus [15] = experiment: Effect of compound on Ehrlich ascites carcinoma growth in CF1 mice at 20 mg/kg per day ip survival at day 9; 8/8; conditions: route intraperitoneal
Mus musculus [16] = experiment: Effect of compound on P-388 lymphocytic leukemia growth at a given dose 25 mg/kg per day ip expressed as average survival days of treated mice; conditions: route intraperitoneal
Mus musculus [17] = experiment: Effect of compound on P-388 lymphocytic leukemia growth at a given dose 25 mg/kg per day ip expressed as ratio of treated / control (T/C>125 is required for significant activity); conditions: route intraperitoneal
Mus musculus [18] = experiment: Percent inhibition of Ehrlich ascites carcinoma growth at 5 (mg/kg)/day
Mus musculus [19] = experiment: Percent packed cell volume at 5 (mg/kg)/day
Mus musculus [20] = experiment: Percent packed cell volume at 5 (mg/kg)/day per mouse
Mus musculus [21] = experiment: Effect of compound on Ehrlich ascites carcinoma growth in CF1 mice at 10 mg/kg per day ip survival at day 9; 3/8; conditions: route intraperitoneal
Mus musculus [22] = experiment: Effect of compound on Ehrlich ascites carcinoma growth in CF1 mice at 5 mg/kg per day ip survival at day 9; 5/6; conditions: route intraperitoneal
Mus musculus [23] = experiment: Effect of compound on P-388 lymphocytic leukemia growth at a given dose 10 mg/kg per day ip expressed as ratio of treated / control; conditions: route intraperitoneal
Mus musculus [24] = experiment: Effect of compound on P-388 lymphocytic leukemia growth at a given dose 15 mg/kg per dayip expressed as average survival days of treated mice
Mus musculus [25] = experiment: Effect of compound on P-388 lymphocytic leukemia growth at a given dose 15 mg/kg per day ip expressed as ratio of treated / control; conditions: route intraperitoneal
Mus musculus [26] = experiment: Effect of compound on P-388 lymphocytic leukemia growth at a given dose 2.5 mg/kg per day ip expressed as average survival days of treated mice; conditions: route intraperitoneal
Mus musculus [27] = experiment: Effect of compound on P-388 lymphocytic leukemia growth at a given dose 4 mg/kg per day ip expressed as average survival days of treated mice; conditions: route intraperitoneal
Mus musculus [28] = experiment: Effect of compound on P-388 lymphocytic leukemia growth at a given dose 6.25 mg/kg per day ip expressed as ratio of treated / control (T/C>125 is required for significant activity); conditions: route intraperitoneal
Mus musculus [29] = experiment: Effect of compound on P-388 lymphocytic leukemia growth at a given dose 12.50 mg/kg per day ip expressed as ratio of treated / control (T/C>125 is required for significant activity); conditions: route intraperitoneal
Mus musculus [30] = experiment: Percent inhibition of Ehrlich ascites carcinoma growth at 200 mg/kg per day
Mus musculus [31] = experiment: Percent packed cell volume at 200 mg/kg per day
Mus musculus [32] = experiment: Percent packed cell volume at 200 mg/kg per day per mouse
Mus musculus [33] = experiment: Effect of compound on Ehrlich ascites carcinoma growth in CF1 mice at 200 mg/kg per day ip survival at day 9; 6/6; conditions: route intraperitoneal

Row | SMILES | inhibition in vivo at 10 mg/kg/day (Mus musculus [1]) [%] | % (Mus musculus [2]) | Volume (Mus musculus [3]) | Survivors at day 9 (Mus musculus [4]) | Days (Mus musculus [5]) | Survivors at day 9 (Mus musculus [7]) | other results
1 | O=c1cc[s+]([O-])c2ccccc12 (centres undefined) | 89.6 | 27.8 | 0.27 | 6 |  |  | 
2 | COCC1=CS(=O)(=O)c2ccccc2C1=O | 99.9 | 0.1 | 0.1 |  | 12 | 8 | T/C (Mus musculus [6]): 126
3 | O=C1c2ccccc2S(=O)(=O)CC1CCl (centres undefined) | 36.3 | 43.5 | 1.84 |  |  | 8 | Days (Mus musculus [8]): 10; T/C (Mus musculus [9]): 105
4 | O=C1C(COC(=O)N(C(=O)Nc2ccccc2)c2ccccc2)=CS(=O)(=O)c2ccccc21 | 69.3 | 38 | 0.58 | 6 |  |  | 
5 | CCOCC1=CS(=O)(=O)c2ccccc2C1=O | 92.4 | 17.8 | 0.54 |  | 12.2 | 8 | Days (Mus musculus [8]): 9.6; Days (Mus musculus [10]): 10.4; T/C (Mus musculus [11]): 128; T/C (Mus musculus [9]): 101; T/C (Mus musculus [12]): 109
6 | O=C(OCC1=CS(=O)(=O)c2ccccc2C1=O)c1ccccc1 | 0 | 33.7 | 2.7 |  |  | 8 | 
7 | CCCOCC1=CS(=O)(=O)c2ccccc2C1=O | 99.9 | 0.19 | 0.12 | 6 |  |  | 
8 | CC(C)OCC1=CS(=O)(=O)c2ccccc2C1=O | 99.2 | 3.19 | 0.28 | 6 | 11.6 |  | T/C (Mus musculus [6]): 122
9 | Cc1sc2ccccc2c(=O)c1CBr | 25.8 | 42.7 | 2.1 |  | 11.4 | 8 | T/C (Mus musculus [6]): 120
10 | O=C1C(COCCCl)=CS(=O)(=O)c2ccccc21 | 98.1 | 7.93 | 0.07 | 6 |  |  | 
11 | O=C1C(CN(CCCl)CCCl)=CS(=O)(=O)c2ccccc21 | 99.9 | 2 | 0.01 | 6 |  |  | 
12 | CCNC(=O)OCC1=CS(=O)(=O)c2ccccc2C1=O | 99.3 | 1.33 | 0.38 | 6 |  |  | 
13 | O=C1C(CBr)=C(CBr)S(=O)(=O)c2ccccc21 | 53.9 | 37.2 | 0.76 |  | 10.3 | 8 | % (Mus musculus [13]): 25.2; Inhibition (Mus musculus [13]): 69.9%; T/C (Mus musculus [6]): 108; Volume (Mus musculus [14]): 0.99; Survivors at day 9 (Mus musculus [15]): 8
14 | O=c1[nH]cc(F)c(=O)[nH]1 [FLUOROURACIL] |  |  |  |  |  |  | Days (Mus musculus [16]): 17.6; T/C (Mus musculus [17]): 186
15 | O=C1C(CN2CCOCC2)=CS(=O)(=O)c2ccccc21 | 0 | 43.3 | 1.25 |  |  | 8 | 
16 | O=C1C(CO)=CS(=O)(=O)c2ccccc21 | 99.3 | 0.7 | 0.4 |  |  |  | Inhibition (Mus musculus [18]): 95.6%; % (Mus musculus [19]): 4.8; Volume (Mus musculus [20]): 0.07; Survivors at day 9 (Mus musculus [21]): 3; Survivors at day 9 (Mus musculus [22]): 5
17 | CC1=C(Br)C(=O)c2ccccc2S1(=O)=O | 22.8 | 34.3 | 2.82 |  |  | 8 | Days (Mus musculus [8]): 10.2; T/C (Mus musculus [9]): 107
18 | O=C1C(CBr)=CS(=O)(=O)c2ccccc21 | 92.8 | 8.63 | 0.35 |  | 10 | 8 | T/C (Mus musculus [6]): 105
19 | O=C1C(COCCBr)=CS(=O)(=O)c2ccccc21 | 100 | 0 | 0.05 |  |  | 8 | 
20 | O=C1C(Br)=C(c2ccccc2)S(=O)(=O)c2ccccc21 | 0.4 | 30.6 | 4.06 |  | 11.4 | 8 | T/C (Mus musculus [23]): 120
21 | O=C1C(CI)=CS(=O)(=O)c2ccccc21 | 98 | 9.57 | 0.15 | 6 |  |  | 
22 | COCCOCC1=CS(=O)(=O)c2ccccc2C1=O | 98.2 | 8.2 | 0.07 | 6 |  |  | 
23 | CCC(=O)OCC1=CS(=O)(=O)c2ccccc2C1=O | 99.5 | 0.07 | 0.23 | 6 |  |  | 
24 | O=COCC1=CS(=O)(=O)c2ccccc2C1=O | 91.6 | 4.23 | 0.57 | 6 |  |  | 
25 | O=C1C=CS(=O)(=O)c2ccccc21 | 5.5 | 42.6 | 2.78 |  | 11.4 | 8 | T/C (Mus musculus [6]): 120
26 | O=C1C(CCl)=C(CCl)C(=O)c2ccccc21 | 98.8 | 5 | 0.31 |  | 12.2 | 8 | T/C (Mus musculus [6]): 128
27 | O=C1C(CNc2ccccc2)=CS(=O)(=O)c2ccccc21 | 0 | 40.2 | 2.8 |  |  | 8 | 
28 | O=C1C(Br)=CS(=O)(=O)c2ccccc21 | 69.9 | 38.3 | 0.99 |  | 12.4 | 8 | Days (Mus musculus [24]): 9.4; T/C (Mus musculus [23]): 130; T/C (Mus musculus [25]): 99
29 | CC(=O)OCC1=CS(=O)(=O)c2ccccc2C1=O | 99.5 | 2 | 0.33 |  | 6.6 | 8 | Days (Mus musculus [26]): 10.2; Days (Mus musculus [27]): 11.3; Days (Mus musculus [10]): 11.6; T/C (Mus musculus [6]): 69; T/C (Mus musculus [28]): 107; T/C (Mus musculus [29]): 118; T/C (Mus musculus [17]): 122
30 | Sc1ncnc2nc[nH]c12 [MERCAPTOPURINE ANHYDROUS] |  |  |  |  |  |  | inhibition in vivo at 200 mg/kg/day (Mus musculus [30]): 99.6%; % (Mus musculus [31]): 0.3; Volume (Mus musculus [32]): 0.7; Survivors at day 9 (Mus musculus [33]): 6
